In PubChem BioAssay AID651703 (Broad Institute, 2012) one finds AC50 data, which are given here for 100 molecules.

Several values for one entry are separate records, joined by “and”; a condition that tells them apart may be missing. Identical values can stand only once.

The target in the assay is Transforming acidic coiled-coil-containing protein 3 (Homo sapiens) (UniProt Q9Y6A5). The assay is described as follows: ARNT/TACC3 interaction disruptors, potency, confirmation, biochemical, AlphaScreen, cherry-picked samples (AID 651703).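 Further: TACC3 partner is the GST-tagged E629A mutant dimer; hits lower the signal meaning they disrupt ARNT binding to TACC3.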 The settings on record: AlphaScreen His-ARNT PAS-B / GST-TACC3 binding, luminescence. A general note: Alpha assays give light when donor and acceptor beads are brought close together.
The AC50 is the concentration at which the activity in the assay is half-maximal. On to `O=C(Cn1cnc([N+](=O)[O-])n1)N/N=C/c1cc(Cl)ccc1O`, for which the AC50 was 4.77 µM.

For the molecule `O=C(CC(=O)N/N=C/c1ccccc1O)NCc1cccnc1`, the AC50 was 32.8 µM. The result for `CCOC(=O)C(NCc1ccccn1)(NC(=O)c1cccnc1)C(F)(F)F` (stereo not given) reads 29.8 µM. As to `CCC(COC)Oc1cc(NCc2ccccc2)c2ncn(C(C)C)c2c1` (stereo not given), the AC50 was 23.9 µM.

In the case of `NC(CO)C(=O)NNCc1ccc(O)c(O)c1O` (stereo not given), the AC50 was 13.3 µM. With `O=[N+]([O-])c1cc(Cl)cc(/C=N\Nc2ccccn2)c1O`, the AC50 is 5.13 µM. For `O=C(N/N=C/c1c(O)ccc2ccccc12)c1ccc(CO)nc1`, the AC50 was 10.8 µM.

Regarding `O=C(CNCc1ccccn1)Nc1ccc([N+](=O)[O-])cc1C(=O)Nc1ccccc1F`, the AC50 is 3.05 µM. To `O=C(Nc1ccccc1C(F)(F)F)c1ncn[nH]1` belongs 13.1 µM. As to `O=C(c1ccccn1)N1CC[C@@H]2[C@H]1c1cc(Br)ccc1N[C@@H]2CO`, the AC50 was 27.7 µM.

As to `O=C(NCCCn1ccnc1)C(F)(F)C(F)(F)C(=O)NCCCn1ccnc1`, the AC50 was 38.5 µM. As to `COc1ccc(Br)cc1CNc1ccc(O)cc1`, the half-maximal activity concentration (AC50) was 37.6 µM. To `C/C(=N\NC(=O)Cc1ccc(Cl)cc1)c1ccccn1` belongs 10.2 µM; to `CCOc1cccc(/C=N/NC(=O)c2cc(-c3cccn3C)n[nH]2)c1O`, 17.1 µM; to `COc1cc(/C=N/N(CCO)C2=NS(=O)(=O)c3ccccc32)cc(OC)c1OC`, 15.6 µM. The result for `Cn1cccc1C(=O)Nc1nc(-c2ccccn2)cs1` reads 5.3 µM; that for `COc1cc(OC)c2c(-c3ccccc3)cc(=O)oc2c1C(CCN1CCCCC1)c1ccc(N(C)C)cc1` (stereo not given), 7.83 µM; that for `O=S(=O)(Nc1cccc2cccnc12)c1ccc(S(=O)(=O)N2CCCC2)cc1`, 23.3 µM. The result for `Clc1cccc(-c2ccc(CNCc3ccccn3)o2)c1` reads 21.2 µM; that for `Cc1ccc2cc(C3C(C#N)=C(N)Oc4c3ccc3cccnc43)c(=O)[nH]c2c1` (stereo not given), 7.43 µM.

As to `O=C(NC12CC3CC(CC(C3)C1)C2)c1ccc(-c2ccccc2Cl)o1`, the AC50 is 51 µM. The result for `Oc1c(C(Nc2ccccn2)c2cccnc2)cc(Cl)c2cccnc12` (stereo not given) reads 5.67 µM. The result for `FC(F)(F)c1cnc(C(c2ccccn2)c2ncn[nH]2)c(Cl)c1` (stereo not given) reads 3.93 µM; that for `Cc1ccc(-c2cnc(N)n2C)cc1C`, 41.1 µM; that for `Cc1cccc(C(=O)Nc2nnc(C3=COCCO3)o2)c1`, 12.6 µM. To `COc1cc(OC)cc(C(=O)Nc2nnc(-c3cccnc3)o2)c1` belongs 20.8 µM; to `CC1CCCN(S(=O)(=O)c2ccc(C(=O)Nc3nnc(C4CC4)o3)cc2)C1` (stereo not given), 31.9 µM.

As to `COc1cccc(CNC(=O)CSc2ccc(-c3ccccn3)nn2)c1`, the AC50 was 4.03 µM.

As to `COc1ccc(NC(=O)N[C@H]2CC[C@@H](CCn3cc(-c4ccccn4)nn3)O[C@H]2CO)cc1`, the AC50 was 17 µM.

Take `CCOC(=O)/C(=N/Nc1ccccc1OC)N1CCCc2ccccc21`: the AC50 was 17.3 µM.

As to `c1ccc(-c2nnc(Nc3nc(-c4ccccn4)nnc3-c3ccccc3)s2)cc1`, the AC50 was 1.74 µM. On to `O=C(N[C@H]1CC[C@H](CCn2cc(-c3ccccn3)nn2)O[C@@H]1CO)c1cccnc1`, for which the AC50 was 9.74 µM. The result for `c1ccc(-c2nnc(-c3ccccn3)nc2NCc2cccnc2)cc1` reads less than 0.5 µM; that for `COc1ccc(NC(=O)CSc2c(C)nn(-c3nnc(C)c(=O)[nH]3)c2C)cc1`, 25.2 µM; that for `COc1cc2c(cc1O)C[C@H]1NCCc3cc4c(c-2c31)OCO4`, 27.7 µM. The result for `CCN(CC)S(=O)(=O)c1ccc(NN)nc1` reads 8.98 µM; that for `Nc1nc(-c2ccccn2)nc(N)c1Cc1ccc(Cl)cc1Cl`, 2.6 µM; that for `Nc1nc(CN2CCCCCC2)nc(Nc2ccccc2)n1`, 59 µM.

In the case of `Nc1nc(CN2CCN(Cc3ccccc3)CC2)nc(Nc2ccc3c(c2)OCCO3)n1`, the AC50 was 65.8 µM. The result for `Cc1ccc2nc(-c3ccccn3)c(NC3CCCC3)n2c1` reads 10.2 µM. The result for `O=C(NC[C@@H]1[C@H](c2ccccc2)[C@H](CO)N1Cc1ccccn1)C1CC1` reads 59.6 µM; that for `N#Cc1ccsc1NC(=O)c1ccccn1`, 21.9 µM. The result for `C/C(=N\NC(=O)c1cccc2ccccc12)c1ccccn1` reads 3.15 µM; that for `CC1CCCC(C)N1/N=C/c1ccc([N+](=O)[O-])cc1` (stereo not given), 17 µM. As for `O=C(CSc1n[nH]c(-c2ccccn2)n1)Nc1ccccc1`, the AC50 is 0.706 µM.

For the molecule `CC1(C)Cc2c(sc3nc4n(-c5ccccc5)c(=O)c(CCC(=O)O)nn4c(=O)c23)CO1`, the concentration at half-maximal activity (AC50) is 19.2 µM. To `COc1ccc(S(=O)(=O)N2CCOC2CNC(=O)C(=O)NCCCn2ccnc2)cc1OC` (stereo not given) belongs 22.4 µM; to `Cc1nc2ccccc2n1CC(=O)c1ccc(O)c(O)c1`, 49.8 µM; to `COc1ccc(NC(=O)N[C@@H]2CC[C@H](CCn3cc(-c4ccccn4)nn3)O[C@H]2CO)cc1`, 12.7 µM. To `CC(=O)/C(=N\Nc1ccc(Cl)cc1Cl)Sc1cccc2cccnc12` belongs 2.95 µM; to `O=C(CC(NCc1ccccn1)C(=O)O)Nc1ccccc1Cl` (stereo not given), 0.638 µM. The result for `O=S(=O)(c1ccccc1)c1nc(-c2ccco2)oc1Nc1ccccc1` reads 55.5 µM.

`c1ccc(-c2nnc(-c3ccccn3)nc2NCC2CCOCC2)cc1`: the AC50 was less than 0.5 µM. The result for `Oc1ccc(CN2CCc3ccccc3C2)c2cccnc12` reads 0.919 µM and 1.08 µM and 2.25 µM; that for `O=C(N[C@H]1CC[C@H](CCn2cc(-c3ccccn3)nn2)O[C@@H]1CO)c1ccncc1`, 14.8 µM. To `O=C(Cn1cncn1)N/N=C/c1cc([N+](=O)[O-])ccc1O` belongs 4.04 µM. Turning to `O=c1cc(N/N=C/c2ccccc2)[nH]c(=O)[nH]1`, the AC50 is 31.8 µM. The result for `COc1ccccc1Nc1cc2cc(Br)ccc2c(=O)[nH]1` reads 16.8 µM; that for `CC(C)C(=O)NC(c1ccco1)c1ccc2cccnc2c1O` (stereo not given), 0.957 µM. With `Cc1cccc(Nc2nc(-c3ccccn3)nnc2-c2ccccc2)n1`, the AC50 is less than 0.5 µM.

Regarding `COc1ccccc1NC(=O)CSc1n[nH]c(-c2ccccn2)n1`, the AC50 is 0.821 µM. Regarding `O=C(COC(=O)c1ccccn1)c1cccc(Br)c1`, the AC50 is 11.8 µM. The result for `O=C(O)C1Nc2c(O)cc(Cl)c([N+](=O)[O-])c2C2C=CCC12` (stereo not given) reads 28.1 µM.

On to `CCN(C(=O)Cc1nc(N)n[nH]1)C1(C(=O)Nc2ccccc2)CCCCC1`, for which the AC50 was 20 µM.

Consider `O=S(=O)(N[C@@H]1CC[C@H](CCn2cc(-c3ccccn3)nn2)O[C@@H]1CO)c1cccc(Cl)c1`, for which the AC50 is 16.7 µM.

With `C[C@H](NC(=O)c1ccco1)C(=O)Nc1nc(-c2ccccn2)cs1`, the AC50 was 8.23 µM. The result for `O=C(CCS(=O)(=O)c1ccccc1)Nc1nc(-c2ccccn2)cs1` reads 11.2 µM; that for `Cc1cc(=O)n2c3c(c4c(cc13)c(CN(C)C)cc(=O)n4C)OC2`, 17.7 µM. Take `O=C(Nc1nnc(-c2ccco2)o1)c1ccc(N2C(=O)CCC2=O)cc1`: the AC50 was 22.8 µM. The result for `CO[C@@H]1CN(C)C(=O)c2ccc(NC(=O)c3ccccn3)cc2OC[C@@H](C)N(C(=O)C2CC2)C[C@H]1C` reads 13.1 µM; that for `COc1ccc(S(=O)(=O)n2oc(=O)cc2-c2ccccc2)cc1OC`, 2.6 µM.

Regarding `C/C=C/c1ccc([C@@H]2[C@H](CO)N(Cc3ccccn3)[C@H]2CNC(C)=O)cc1`, the AC50 is 47.8 µM. To `O=C(Cc1ccccc1)Nc1nnc(-c2ccco2)o1` belongs 56.9 µM; to `O=C(Nc1ccccc1C(=O)Nc1ccccc1C(=O)O)c1ccccc1`, 65.3 µM. To `O=C(COC(=O)c1cccc(O)c1)Nc1nnc(-c2ccccc2)o1` belongs 16 µM. The result for `O=C(CSc1ccc2nnc(-c3ccccn3)n2n1)Nc1ccccc1C(F)(F)F` reads 50.7 µM; that for `O=C(Oc1ccc(Cl)c2cccnc12)c1cccnc1`, 9.58 µM.

As for `COc1ccc(NC(=O)N[C@H]2CC[C@H](CCn3cc(-c4ccccn4)nn3)O[C@@H]2CO)cc1`, the AC50 is 12 µM. With `Cc1cc(C)c(S(=O)(=O)N2CCOC2CNC(=O)C(=O)NCCCn2ccnc2)c(C)c1` (stereo not given), the AC50 is 5.58 µM. The result for `O=c1[nH][nH]c(=O)c2nc(Nc3ccccc3)ncc12` reads 66.1 µM; that for `O=C(c1ccco1)[C@@H]1[C@@H]2C(=O)N(c3ccccc3)C(=O)[C@@H]2C2c3ccccc3C=CN21` (stereo not given in full), 45.9 µM.

As for `O=C(N[C@@H]1CC[C@@H](CCn2cc(-c3ccccn3)nn2)O[C@H]1CO)c1ccccc1`, the AC50 is 9.23 µM. Regarding `Fc1ccc(-c2ccc(CNCc3ccccn3)o2)cc1`, the AC50 is 31.2 µM. The result for `CCCC(=O)NC(c1ccc(N(C)C)cc1)c1ccc2cccnc2c1O` (stereo not given) reads 5.3 µM; that for `Oc1c(CN2CCOCC2)cc(COCc2ccccc2)c2cccnc12`, 0.614 µM; that for `c1ccc(CSc2ccc(-c3ccccn3)nn2)nc1`, 0.895 µM. Turning to `COc1ccccc1-c1nnc(NC(=O)Cc2ccccc2)o1`, the AC50 is 35 µM. For `COc1ccc(C(=O)Oc2cccc3cccnc23)cc1[N+](=O)[O-]`, the AC50 is 15 µM. Turning to `CCc1cc2c(=O)[nH]c(-c3ccccn3)nc2s1`, the AC50 is 2.86 µM. The result for `CC(=O)N1CCc2[nH]c3ccc(C)cc3c2C1` reads 13.9 µM. To `c1ccc(N=Nc2ccc3cccccc2-3)cc1` belongs 1.68 µM; to `CCOC(=O)CSc1cccc2cccnc12`, 4.59 µM.

Consider `C/C=C/c1ccc([C@H]2[C@@H](CNC(=O)CC)N(Cc3ccccn3)[C@H]2CO)cc1`, for which the AC50 was 45 µM.

Consider `Cc1ccccc1Nc1nc(N)nc(CN(C)Cc2ccccc2Cl)n1`, for which the AC50 is 53.5 µM. On to `CC(C)[C@H](NC(=O)c1ccccc1Cl)C(=O)Nc1nc(-c2ccccn2)cs1`, for which the AC50 was 6.72 µM. To `C/C(CC(=O)Nc1ccc(N(C)C)cc1)=N\NC(=O)c1ccccn1` belongs 12.3 µM. The result for `COc1cc(CNCc2ccccn2)ccc1OCc1c(Cl)cccc1Cl` reads 43.4 µM; that for `O=S(=O)(c1cccc2cccnc12)N1CCN(Cc2ccc(OCCO)cc2)CC1`, 48.2 µM. The result for `COC(=O)c1ccc(CSc2ccc3nnc(-c4ccccn4)n3n2)o1` reads 17.4 µM; that for `CC(=O)NC(C)c1cc(Cl)c2cccnc2c1O` (stereo not given), 6.14 µM.
